Measured values as given in patent US20220257698A1, “ANGIOTENSIN TYPE 2 (AT2) RECEPTOR AGONISTS FOR USE IN THE TREATMENT OF CANCER” (LANTHIOPEP B.V., priority 2019, published 2022).

Key:
U251MG glioblastoma CDX = test: Subcutaneous U251MG glioblastoma CDX: time of tumor progression; format: in vivo, cd1 nu/nu mice (human GBM cell line); settings: KcAng(1-7) 1 μg/kg/d, Losartan 20 mg/kg/d, or both
Method: Effects of KcAng(1-7) were evaluated in vivo in a subcutaneous GBM xenograft model in nude mice. Insurgence of neurologic phenomena and differences in the survival rates were evaluated. Human GBM cell lines U87MG and U251MG were used. Cell lines were grown in DMEM nutrient mixture supplemented with 10% fetal bovine serum, 1% penicillin/streptomycin, and 25 mM HEPES buffer. All cell lines were cultured at 37° C. in a humidified atmosphere consisting of 5% CO2 and 95% air. Medium was changed every 2 days and the cell morphology was evaluated under microscope daily. Six-week-old male athymic nude mice (age 5-7 weeks) were housed with free access to food and water in a temperature-controlled room. Each group is represented by 10 xenograft cd1 nu/nu mice. […] Xenografts were measured every four days with a digital caliper in two perpendicular dimensions. Tumor volume was calculated according to the following formula: In vivo tumor response to treatment was evaluated using the following parameters: […] […] TP, TTP and DFS were analyzed by Kaplan-Meier curves and Gehan's generalized Wilcoxon test. […]

[1] = target: serine/threonine kinases (STK) in colon carcinoma PDX lysates; test: PamChip serine/threonine kinase (STK) activity profiling of colon carcinoma PDX tumor lysates; set-up: species or system human PDX grown in mice; Kinase score: scale not given here; settings: for Kinase statistic: value<0 = higher activity in vehicle-treated tumors; for Kinase score: vehicle-treated vs KcAng(1-7)-treated tumors
Method: In particular, to determine the effect of treatment on kinase activities, Tyrosine (PTK) and Serine/Threonine (STK) PamChip®-based kinase activity profiling in lysates from colon carcinoma PDX was performed by PamGene International B.V., The Netherlands.
PamGene® kinase activity profiles were measured for vehicle-treated colon cancer PDX tumors (control, n=10) and KcAng(1-7)-treated colon cancer PDX tumors (treatment, n=10).
Frozen tissues of tumor samples were processed to make lysates followed by determination of tyrosine kinase and serine/threonine kinase activity profiles. Datasets were analyzed by PamGene bioinformatics toolbox, for example by using PamGene's method called Upstream Kinase Analysis.
Kinase Score was used for ranking kinases based on their significance and specificity in terms of the set of peptides used for the corresponding kinase. Kinase statistics indicates the overall change of the peptide set that represents the kinase. Kinase statistics value<0 indicates higher activity in vehicle-treated tumors.

**Q.** How did the “Time of tumor progression - TTP, mean (days ± SEM)” value (U251MG glioblastoma CDX) turn out when “Lys-Asp-Arg-Val-Abu/Ala-Ile-His-Abu/Ala (KDRVAIHA; not fully specified; cyclic thioether (Abu/Ala bridge); VARIANT (5)..(5) /replace=“Abu”; VARIANT (8)..(8) /replace=“Abu”; SITE (1)..(8) /note=“Variant residues given in the sequence have no preference with respect to those in the annotations for variant positions”) [KcAng(1-7)]” was run?
**A.** 14.4 ± 0.8 days

**Q.** And the Kinase statistic ([1]; kinase CDC2/CDK1)?
**A.** −0.80

**Q.** What about the Kinase score ([1]; kinase CDC2/CDK1) of the same substance?
**A.** 3.79

**Q.** What about the Kinase statistic ([1]; kinase CDK2) of the same substance?
**A.** −0.88

**Q.** What about the Kinase score ([1]; kinase CDK2) of the same substance?
**A.** 5.40

**Q.** And the Kinase statistic ([1]; kinase CDK4)?
**A.** −0.80

**Q.** What about the Kinase score ([1]; kinase CDK4) of the same substance?
**A.** 3.11

**Q.** And the Kinase statistic ([1]; kinase CDK5)?
**A.** −0.80

**Q.** And the Kinase score ([1]; kinase CDK5)?
**A.** 3.11

**Q.** What about the Kinase statistic ([1]; kinase CDK6) of the same substance?
**A.** −0.80

**Q.** And the Kinase score ([1]; kinase CDK6)?
**A.** 3.10

**Q.** What about the Kinase statistic ([1]; kinase CDK9) of the same substance?
**A.** −0.83

**Q.** What about the Kinase score ([1]; kinase CDK9) of the same substance?
**A.** 4.19

**Q.** What about the Kinase statistic ([1]; kinase CDKL2) of the same substance?
**A.** −0.98

**Q.** What about the Kinase score ([1]; kinase CDKL2) of the same substance?
**A.** 4.62

**Q.** And the Kinase statistic ([1]; kinase CDKL5)?
**A.** −0.82

**Q.** What about the Kinase score ([1]; kinase CDKL5) of the same substance?
**A.** 4.21

**Q.** What about the Kinase statistic ([1]; kinase ERK1) of the same substance?
**A.** −0.82

**Q.** And the Kinase score ([1]; kinase ERK1)?
**A.** 4.44

**Q.** What about the Kinase statistic ([1]; kinase ERK2) of the same substance?
**A.** −0.79

**Q.** And the Kinase score ([1]; kinase ERK2)?
**A.** 3.84

**Q.** And the Kinase statistic ([1]; kinase ERK5)?
**A.** −0.90

**Q.** And the Kinase score ([1]; kinase ERK5)?
**A.** 5.40

**Q.** And the Kinase statistic ([1]; kinase JNK1)?
**A.** −0.77

**Q.** What about the Kinase score ([1]; kinase JNK1) of the same substance?
**A.** 3.92

**Q.** What about the Kinase statistic ([1]; kinase JNK2) of the same substance?
**A.** −0.77

**Q.** And the Kinase score ([1]; kinase JNK2)?
**A.** 3.67

**Q.** And the Kinase statistic ([1]; kinase JNK3)?
**A.** −0.77

**Q.** And the Kinase score ([1]; kinase JNK3)?
**A.** 4.08

**Q.** What about the Kinase statistic ([1]; kinase MAPK14) of the same substance?
**A.** −0.79

**Q.** And the Kinase score ([1]; kinase MAPK14)?
**A.** 3.54

**Q.** What about the Kinase statistic ([1]; kinase PCTAIRE2) of the same substance?
**A.** −0.74

**Q.** And the Kinase score ([1]; kinase PCTAIRE2)?
**A.** 3.44

**Q.** And the Kinase statistic ([1]; kinase RAF1)?
**A.** −0.74

**Q.** What about the Kinase score ([1]; kinase RAF1) of the same substance?
**A.** 2.97

**Q.** What about the Kinase statistic ([1]; kinase RSK3) of the same substance?
**A.** −0.75

**Q.** What about the Kinase score ([1]; kinase RSK3) of the same substance?
**A.** 3.42

**Q.** And the Kinase statistic ([1]; kinase p38[beta])?
**A.** −0.84

**Q.** What about the Kinase score ([1]; kinase p38[beta]) of the same substance?
**A.** 4.14

**Q.** What about the Kinase statistic ([1]; kinase p38[gamma]) of the same substance?
**A.** −0.82

**Q.** And the Kinase score ([1]; kinase p38[gamma])?
**A.** 3.47
